The results in this text go back to ChEMBL document CHEMBL1145693, “Stereochemistry-dependent cytotoxicity of some artemisinin derivatives” (J Nat Prod, 1997).

Structures are written as SMILES. Activity calls are given as the source filed them. The calls are words filed in the database; no cut-off is given here.

Format in all cases: functional, cell-based
The nature of test [1]: Cytotoxicity against mouse EN2 cells after 72 hrs by MTT assay. The settings on record: EN2, 72 h.
For test [2], the system named is EN2. As to the kind of experiment: Cytotoxicity against mouse EN2 cells after 5 mins by MTT assay.
Test [3] deals with EN2. As to the kind of experiment: Cytotoxicity against mouse EN2 cells after 10 mins by MTT assay.
Test [4] relates to EN2. As to the kind of experiment: Cytotoxicity against mouse EN2 cells after 15 mins by MTT assay.
Test [5] is described as follows: Cell cycle arrest in mouse EN2 cells assessed as accumulation at G1 phase after 24 hrs by flow cytometry relative to control.
The nature of test [6]: Cytotoxicity against mouse EN2 cells after 24 hrs by MTT assay. Particulars: EN2, 24 h.
Test [7] can be described thus: Cytotoxicity against mouse EN2 cells after 24 hrs by clonogenic assay. Particulars: EN2, 24 h.
The nature of test [8]: Cytotoxicity against mouse EN2 cells after 24 hrs by cell-count assay. The settings on record: EN2, 24 h.
Test [9] is described as follows: Cell cycle arrest in mouse EN2 cells assessed as accumulation at G1 phase after 24 hrs by flow cytometry. Particulars: EN2, 24 h.
Test [10] is described as follows: Cell cycle arrest in mouse EN2 cells assessed as accumulation at S phase after 24 hrs by flow cytometry relative to control.
The nature of test [11]: Cell cycle arrest in mouse EN2 cells assessed as accumulation at S phase after 48 hrs by flow cytometry relative to control.
Test [12] in a line: Cell cycle arrest in mouse EN2 cells assessed as accumulation at G1 phase at 0.4 uM after 12 hrs by flow cytometry relative to control.
A short description of test [13]: Cell cycle arrest in mouse EN2 cells assessed as accumulation at G1 phase at 0.4 uM after 24 to 48 hrs by flow cytometry relative to control.
Test [14] in a line: Cell cycle arrest in mouse EN2 cells assessed as accumulation at G1 phase after 2 hrs of incubation measured after 24 hrs relative to control.
A short description of test [15]: Cytotoxicity against mouse EN2 cells after 2 hrs of incubation measured after 2 days by MTT assay.
A short description of test [16]: Cytotoxicity against mouse EN2 cells after 2 hrs of incubation measured after 6 days by clonogenic assay.
Test [17] in a line: Cytotoxicity against mouse EN2 cells after 2 hrs of incubation measured after 24 hrs by cell-count assay.
The nature of test [18]: Cytotoxicity against mouse EN2 cells at 50 uM after 24 hrs by clonogenic assay. The settings on record: EN2, 24 h.

`C[C@@H]1CC[C@@H]2[C@]34OO[C@](C)(CC[C@@H]13)O[C@H]4OC(=O)[C@@]21CO1`: the IC50 in [1] was 12.7 µM.
Take `C[C@H]1[C@@H](O[C@H]2O[C@@H]3O[C@]4(C)CC[C@H]5[C@H](C)CC[C@@H]([C@H]2C)[C@@]35OO4)O[C@@H]2O[C@]3(C)CC[C@H]4[C@H](C)CC[C@@H]1[C@@]24OO3`: the IC50 in test [1] was 2 µM; in test [6], 7.2 µM; in [7] it was more than 50 µM; in test [8], 8.9 µM; in test [9] it was 1 µM. In addition, the result (with EN2 [2]; in the test with EN2 [3]; in the test with EN2 [4]; in [5]) was Active.
Molecule `C[C@H]1[C@H](O[C@H]2O[C@@H]3O[C@]4(C)CC[C@H]5[C@H](C)CC[C@@H]([C@H]2C)[C@@]35O4)O[C@@H]2O[C@]3(C)CC[C@H]4[C@H](C)CC[C@@H]1[C@@]24O3` [listing 1 of 2 here] displayed an IC50 in [1] of 8.9 µM.
`C[C@H]1[C@H](O[C@H]2O[C@@H]3O[C@]4(C)CC[C@H]5[C@H](C)CC[C@@H]([C@H]2C)[C@@]35O4)O[C@@H]2O[C@]3(C)CC[C@H]4[C@H](C)CC[C@@H]1[C@@]24O3` [listing 2 of 2 here]: the IC50 in [1] amounted to 99.8 µM.
For `C[C@@H]1CC[C@@H]2[C@]34OO[C@](C)(CC[C@@H]13)O[C@H]4OC(=O)[C@]21CO1`, the IC50 in test [1] was more than 100 µM.
`C[C@@H]1CC[C@H]2[C@@H](C)C(=O)O[C@@H]3O[C@@]4(C)CC[C@@H]1[C@]32O4` [DEOXYARTEMISININ] yielded an IC50 in [1] of 111 µM.
Turning to `C[C@@H]1CC[C@H]2[C@@H](C)C(=O)O[C@@H]3O[C@@]4(C)CC[C@@H]1[C@]32OO4` [ARTEMISININ], the IC50 is 0.98 µM in test [1]; 11.5 µM in [6]; more than 50 µM in test [7]; 30 µM in test [8]; 1 µM in [9]. For the same molecule, in [10], the Activity result was “Dose-dependent effect”. The result in [11] and in [5] was inactive.
Turning to `C[C@H]1[C@H](O[C@H]2O[C@@H]3O[C@]4(C)CC[C@H]5[C@H](C)CC[C@@H]([C@H]2C)[C@@]35OO4)O[C@@H]2O[C@]3(C)CC[C@H]4[C@H](C)CC[C@@H]1[C@@]24OO3`, the IC50 in [1] amounted to 0.11 µM; in test [14], 1 µM; in [15], 3.6 µM; in test [16], 55.6 µM; in [17], 9.3 µM; in test [6] it was 0.35 µM. In addition, the IC50 in test [18] amounted to 1 µM; in test [8] it was 0.54 µM; in test [9], 0.05 µM. Besides, the result (with EN2 [2]; in the test on EN2 [3]; in the test on EN2 [4]; in [5]; in test [12]) was Active. Also, the result in [13] was inactive. Moreover, the Activity entry in test [14] was “Dose-dependent effect”.
